Test results from patent publication US20130123287A1, “CONTROL AGENT FOR SOFT ROT AND CONTROL METHOD FOR THE SAME” (ISHIHARA SANGYO KAISHA, LTD., priority 2010, published 2013).

Key:
[1] = test system: soft rot of Chinese cabbage; assay: Test for controlling soft rot of Chinese cabbage, Example 3 / Comparative Example 3 (field, cultivar Muso); assay type: in vivo; settings: 500 g ai/10 a, 150 L/10 a sprayed onto planting holes before planting, 51 days after start
Excerpt: (§1) Frequency of the disease=[sigma(number of plants with the onset of the disease at each severity level*index of the onset of the disease)/(plants examined*4)]*100
(§2) Disease control value=[1-(frequency of the disease in the treated lot/frequency of the disease in the non-treated lot)]*100
(§3) • 0: No onset • 1: Onset in some of outer leaves (shippable) • 2: Onset in outer leaves and some of head leaves (by removing damaged parts, the resulting cabbage can be shipped as small cabbage but is ranked as grade B). • 3: Most of head leaves are inflicted with the onset of the disease or with severer damages (not shippable) • 4: Whole cabbage plant is inflicted with the onset of the disease and is dead.
442 g/l kresoxim-methyl (STROBY FLOWABLE [trade name], manufactured by BASF) was adjusted to 500 g ai/10a (0.5 g/m^2, 1131 ml Product/10a) as the amount of the active ingredient and to 150 L/10a as the volume of diluent water. […]
(§4) 51 days after the start of the tests, all the plants in each lot were examined about the severity level of the disease to assess the frequency of the disease and the disease control value. The frequency of the disease and the disease control value were determined in the same manner as described above. Because soft rot is a disease with damages hardly controlled, herein, even a chemical at the level C determined by the tests of the effects can practically be used.

[2] = test system: soft rot of Chinese cabbage; assay: Test for controlling soft rot of Chinese cabbage, Example 4 / Comparative Example 4 (field, cultivar Ouraku 60); assay type: in vivo; settings: 500 g ai/10 a, 150 L/10 a sprayed onto planting holes before planting, 49 days after start
Excerpt: as §1, §2, §3
442 g/lkresoxim-methyl (STROBY FLOWABLE [trade name], manufactured by BASF) was adjusted to 500 g ai/10a (0.5 g/m^2, 1131 ml Product/10a) as the amount of the active ingredient and to 150 L/10a as the volume of diluent water.
70% w/w thiophanate methyl (Topsin M WF [trade name], manufactured by Nippon Soda Co., Ltd.) was adjusted to 1000 g ai/10a (1 g/m^2, 1429 g Product/10a) as the amount of the active ingredient and to 150 L/10a as the volume of diluent water.
50% w/w boscalid (Cantus DF [trade name], manufactured by BASF) was adjusted to 500 g ai/10a (0.5 g/m^2; 1000 g Product/10a) as the amount of the active ingredient and to 150 L/10a as the volume of diluent water.
50% w/w procymidone (Sumilex WP [trade name], manufactured by Sumitomo Chemical Agro) was adjusted to 500 g ai/10a (0.5 g/m^2, 1000 g Product/10a) as the amount of the active ingredient and to 150 L/10a as the volume of diluent water.
400 g/l iprodione (Rovral 500 Aqua [trade name], manufactured by Bayer Crop Science Co., Ltd.) was adjusted to 500 g ai/10a (0.5 g/m^2, […] Product/10a) as the amount of the active ingredient and to 150 L/10a as the volume of diluent water.
200 g/l fludioxonil (Seibia FLOWABLE [trade name], manufactured by Syngenta Japan K.K.) was adjusted to 500 g ai/10a (0.5 g/m^2, 2500 ml Product/10a) as the amount of the active ingredient and to 150 L/10a as the volume of diluent water.
400 g/l mepanipyrim (Flupika PLOWABLE [trade name], manufactured by Nippon Soda Co., Ltd.) was adjusted to 500 g ai/10a (0.5 g/m^2, 1250 ml Product/10a) as the amount of the active ingredient and to 150 L/10a as the volume of diluent water.
After spreading an agricultural mulch-sheet and opening planting holes (diameter of about 5 cm) for permanent planting through the mulch-sheet, the spray solutions prepared as described above were sprayed onto the planting holes such that the amount of treated active ingredient of each spray solution was 0.5 g/m^2 (150 L per 10a), followed by air-drying; subsequently, seedlings of Chinese cabbage (cultivar: Ouraku 60) grown for 4 weeks in cell mold trays (128 holes/nursery box) were planted such that 30 seedlings were planted in each test lot having an area of 2.5 m^2 with two replications.
Preparation was performed by diluting a chemical solution (Agrimycin WP100 [trade name] manufactured by Pfizer) containing oxytetracycline at 1.5% and streptomycin sulfate salt at 18.8% with water to 1/1500.
In a field spread with the agricultural mulch-sheet, Chinese cabbage seedlings (cultivar: Ouraku 60) grown by the same method as in Example 4 were planted by the same method as in Example 4, for spraying the spray solution prepared above in (1) (at each spray volume of 300 L/10a) twice (28 days and 42 days after the planting of the seedlings) on the stems and leaves.
as §4, with “49” for “51”, “Herein, the” for “The”

[3] = test system: bacteria causing the soft rot (Erwinia carotovora); assay: Inhibition test of growth of bacteria causing soft rot, Reference Test Example 4; assay type: cell-based; settings: for formed colonies (growth state), grade: PSA medium, 27 degrees Celsius, 2 days
Excerpt: An inhibition test of the growth of bacteria causing the soft rot was done, when a control agent was directly applied to the bacteria causing the soft rot. A given volume of each pesticide of kresoxim-methyl (STROBY DF [trade name] manufactured by BASF), thiophanate methyl (Topsin M WP [trade name], manufactured by Nippon Soda Co., Ltd), boscalid (Cantus DF [trade name] manufactured by BASF), procymidone (Sumilex WP [trade name] manufactured by Sumitomo Chemical Agro Co., Ltd.) and streptomycin (Mycin Wettable powder [trade name] manufactured by Hokko Chemical Industry Co., Ltd.) was added together with a suspension of the bacteria causing the soft rot (Erwinia carotovora) to a preliminarily dissolved PSA culture medium (55 degrees Celsius) for subsequent thorough agitation, which was then spread on a plate for culturing at 27 degrees Celsius for 2 days, to examine the growth state. Subsequently, the formed colonies were examined according to the following three grades. • +: at the same level as the level of non-treated lot. Plus or minus: apparently less than the colonies of the non-treated lot. • −: almost no colonies observed.

Structure (SMILES): CO/N=C(/C(=O)OC)c1ccccc1COc1ccccc1C [Kresoxim-methyl, methyl=(E)-methoxyimino[2-(o-tolyloxymethyl)phenyl]acetate]
- Determination of effect [1]: C (C: Effective at low level (21 to 40 disease control value))
- Determination of effect [2]: C (C: Effective at low level (21 to 40 disease control value))
- formed colonies (growth state), grade ([3]; 100 ppm active ingredient): +, +
- formed colonies (growth state), grade ([3]; 500 ppm active ingredient): +, +
- formed colonies (growth state), grade ([3]; 1000 ppm active ingredient): +, +
- inhibition of growth of Erwinia carotovora (in words) ([3]; active ingredient concentration of 1,000 ppm): never inhibited the growth
